Target: Tyrosine-protein kinase BTK (Homo sapiens, UniProt Q06187)
Assay: Kinase Assay: 1. Optimization of kinase concentration required to determine ATP Km,app. The assay was first performed at a high concentration of ATP (1 mM) against a dilution series of kinase in order to determine the amount of kinase required to elicit an approximately 80% change between the minimum and maximum TR-FRET emission ratios (the EC80 value).2. Determination of ATP Km,app. Using the concentration of enzyme determined in step 1, the assay was then performed against a dilution series of ATP in order to determine the amount of ATP required to elicit a 50% change between the minimum and maximum TR-FRET emission ratios (the EC50 value). This concentration of ATP was referred to as the “apparent” Km value for ATP, or the ATP Km,app.3. Optimization of kinase concentration required for assay at ATP Km,app. Using the ATP Km,app concentration of ATP determined in step 2, the kinase titration was repeated in order to determine the concentration of kinase required to elicit an approximately 80% change between the minimum and maximum TR-FRET emission ratios at the ATP Km,app concentration of ATP (the EC80 value). This was the concentration of kinase that will be used in an assay to determine an IC50 value for a compound of the invention.

Chain of Tyrosine-protein kinase BTK (Q06187 whole entry): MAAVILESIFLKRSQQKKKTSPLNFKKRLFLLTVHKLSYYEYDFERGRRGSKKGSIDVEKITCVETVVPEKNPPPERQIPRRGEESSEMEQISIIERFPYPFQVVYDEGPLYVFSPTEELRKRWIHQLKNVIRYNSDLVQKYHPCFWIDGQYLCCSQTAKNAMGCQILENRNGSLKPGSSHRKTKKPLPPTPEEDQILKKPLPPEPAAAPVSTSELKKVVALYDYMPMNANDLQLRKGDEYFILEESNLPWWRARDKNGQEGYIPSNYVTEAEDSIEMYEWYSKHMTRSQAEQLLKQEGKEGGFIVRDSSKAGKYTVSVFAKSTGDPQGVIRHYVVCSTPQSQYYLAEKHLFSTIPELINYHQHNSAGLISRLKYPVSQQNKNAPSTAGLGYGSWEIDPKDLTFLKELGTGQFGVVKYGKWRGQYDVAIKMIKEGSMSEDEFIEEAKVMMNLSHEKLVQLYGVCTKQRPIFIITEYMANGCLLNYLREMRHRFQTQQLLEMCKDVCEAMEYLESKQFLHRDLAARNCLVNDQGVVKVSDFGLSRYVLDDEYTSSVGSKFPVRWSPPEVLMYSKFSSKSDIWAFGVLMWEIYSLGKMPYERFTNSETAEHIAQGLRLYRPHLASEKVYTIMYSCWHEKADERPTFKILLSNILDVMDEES

IC50 [nM] | Structure (SMILES)
5.13 | C=CC(=O)Nc1cccc(N(C(=O)OCc2ccccc2)c2ccnc(Nc3cnn(C)c3)n2)c1
5.74 | C=CC(=O)Nc1cccc(N(C(=O)OCc2ccccc2)c2ccnc(Nc3cnn(CCN4CCOCC4)c3)n2)c1

Structure (SMILES) | IC50 [nM]
C=CC(=O)Nc1cccc(N(C(=O)OCc2ccccc2)c2ccnc(Nc3cnn(C4CCOCC4)c3)n2)c1 | 3.12

From ChEMBL document CHEMBL5728247, “Kinase inhibitors for the treatment of disease” (2021)
